Experimental data as given in patent US20110021541A1, “INHIBITORS OF HUMAN PHOSPHATIDYL-INOSITOL 3-KINASE DELTA” (priority 2007, published 2011).

What follows are compounds tested against T1, PI3Kδ (Homo sapiens, UniProt O00329) (assay: PI3Kδ biochemical assay (HTS and selectivity assay protocol, [32P]ATP / PIP2 liposomes)). Conditions: Table 1, in vitro activity data for selected compounds; read-out: In Vitro I-50.
T1 construct: FLAG; His tag (vector pFastbac HTb); made in house; host or cells: Sf21 insect cells (baculovirus, BAC-TO-BAC HT)
Method: The 3× substrate for the HTS contained 0.6 mM Na2ATP, 0.10 mCi/mL γ-[^32P]ATP (NEN, Pittsburgh, Pa.), 6 μM PIP2/PS liposomes (Avanti Polar Lipids, Inc., […].), in 20 mM HEPES, pH 7.4.
Subsequent selectivity assays were done similarly using the same 3× substrate stocks except they contained 0.05 mCi/mL γ[^32P]ATP and 3 mM PIP2. Subsequent selectivity assays also used the same 3× enzyme stocks, except they now contained 3 nM of any given PI3K isoform.
For all selectivity assays, the test compounds were weighed out and dissolved into 10-50 mM stocks in 100% DMSO (depending on their respective solubilities) and stored at −20° C. Compounds were thawed (to room temperature or 37° C.), diluted to 300 μM in water from which a 3-fold dilution series into water was done. From these dilutions, 20 μL was added into the assay wells alongside water blanks used for the enzyme (positive) control and the no enzyme (background) control.

T1 sequence (O00329 whole entry): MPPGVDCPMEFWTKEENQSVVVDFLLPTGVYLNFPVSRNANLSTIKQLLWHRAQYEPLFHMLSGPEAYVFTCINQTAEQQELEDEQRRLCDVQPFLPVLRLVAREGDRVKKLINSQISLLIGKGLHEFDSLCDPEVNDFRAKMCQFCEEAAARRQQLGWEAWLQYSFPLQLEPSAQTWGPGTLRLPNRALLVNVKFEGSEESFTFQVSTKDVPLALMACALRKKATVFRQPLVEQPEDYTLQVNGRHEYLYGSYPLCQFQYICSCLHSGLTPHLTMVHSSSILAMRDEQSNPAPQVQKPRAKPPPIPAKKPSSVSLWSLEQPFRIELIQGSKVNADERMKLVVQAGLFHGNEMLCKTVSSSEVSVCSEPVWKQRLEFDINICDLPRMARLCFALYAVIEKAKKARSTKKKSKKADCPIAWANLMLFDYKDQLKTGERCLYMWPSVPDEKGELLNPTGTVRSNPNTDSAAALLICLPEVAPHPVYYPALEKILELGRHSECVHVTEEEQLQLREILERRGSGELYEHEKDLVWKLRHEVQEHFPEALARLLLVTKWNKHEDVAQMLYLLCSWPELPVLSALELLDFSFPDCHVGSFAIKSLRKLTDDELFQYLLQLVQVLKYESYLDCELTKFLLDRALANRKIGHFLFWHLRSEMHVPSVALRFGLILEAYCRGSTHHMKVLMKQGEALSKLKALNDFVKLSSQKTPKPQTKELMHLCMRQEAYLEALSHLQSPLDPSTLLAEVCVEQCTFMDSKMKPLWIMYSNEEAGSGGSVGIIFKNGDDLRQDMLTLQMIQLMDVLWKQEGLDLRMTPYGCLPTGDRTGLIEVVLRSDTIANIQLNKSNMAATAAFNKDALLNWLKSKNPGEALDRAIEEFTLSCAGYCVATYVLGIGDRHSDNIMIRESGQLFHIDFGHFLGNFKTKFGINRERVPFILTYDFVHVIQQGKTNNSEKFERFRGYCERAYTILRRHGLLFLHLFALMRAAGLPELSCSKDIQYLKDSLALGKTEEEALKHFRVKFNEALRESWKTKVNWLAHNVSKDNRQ
T1 sequence (P27986 whole entry partner): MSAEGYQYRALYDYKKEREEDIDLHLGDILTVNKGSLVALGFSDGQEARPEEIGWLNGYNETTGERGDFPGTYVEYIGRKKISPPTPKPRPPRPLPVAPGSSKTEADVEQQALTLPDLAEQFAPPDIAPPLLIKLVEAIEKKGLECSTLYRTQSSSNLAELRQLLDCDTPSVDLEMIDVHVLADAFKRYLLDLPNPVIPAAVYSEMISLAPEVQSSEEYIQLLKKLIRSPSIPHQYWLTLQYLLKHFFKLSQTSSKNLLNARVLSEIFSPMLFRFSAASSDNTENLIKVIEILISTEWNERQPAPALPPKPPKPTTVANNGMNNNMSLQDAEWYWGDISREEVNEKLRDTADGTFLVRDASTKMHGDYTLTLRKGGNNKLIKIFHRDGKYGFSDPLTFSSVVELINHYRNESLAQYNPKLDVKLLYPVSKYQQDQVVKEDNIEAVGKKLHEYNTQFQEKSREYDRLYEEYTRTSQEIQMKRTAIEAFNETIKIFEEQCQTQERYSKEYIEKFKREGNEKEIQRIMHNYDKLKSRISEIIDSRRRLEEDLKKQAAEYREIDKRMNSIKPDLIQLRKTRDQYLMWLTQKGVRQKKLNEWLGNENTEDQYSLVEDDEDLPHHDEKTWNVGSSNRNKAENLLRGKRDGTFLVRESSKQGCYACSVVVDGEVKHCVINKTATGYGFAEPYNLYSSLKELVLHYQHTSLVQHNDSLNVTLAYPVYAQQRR

Row | Structure (SMILES) | IC50 [nM]
1 | Cc1noc2nc(Cn3cnc4c(N)ncnc43)n(-c3ccccc3)c(=O)c12 [Compound 5, 6-(6-Amino-purin-9-ylmethyl)-3-methyl-5-phenyl-5H-is oxazolo[5,4-d]pyrimidin-4-one] | 6400
2 | Cc1noc2nc(CSc3ncnc4[nH]cnc34)n(-c3ccccc3)c(=O)c12 [Compound 4, 3-Methyl-5-phenyl-6-(9H-purin-6-ylsulfanylmethyl)-5H-isoxazolo[5,4-d]pyrimidin-4-one] | 1200
3 | CC(c1nc2c(c(Br)nn2C)c(=O)n1-c1ccccc1)n1cnc2c(N)ncnc21 (stereo not drawn) [Compound 1, 6-[1-(6-Amino-purin-9-yl)-ethyl]-3-bromo-1-methyl-5-phenyl-1,5-dihydro-pyrazolo[3,4-d]pyrimidin-4-one] | 665
4 | CC(Sc1ncnc2[nH]cnc12)c1nc2c(c(Br)nn2C)c(=O)n1-c1ccccc1 (stereo not drawn) [Compound 2, 3-Bromo-1-methyl-5-phenyl-6-[1-(9H-purin-6-ylsulfanyl)-ethyl]-1,5-dihydro-pyrazolo[3,4-d]pyrimidin-4-one] | 6000
5 | CC(c1nc2cccnc2c(=O)n1-c1ccccc1)n1cnc2c(N)ncnc21 (stereo not drawn) [Compound 11] | 665

Each compound was assayed on basophils (assay: Basophil histamine release assay). Conditions: highest concentration (10,000 nM).
Format: cell-based
Method: Assessment of the effect of a compound of the invention on basophil function is tested using a conventional histamine release assay, generally in accordance with the method described in Miura et al., J Immunol, 162:4198-206 (1999). Briefly, enriched basophils are preincubated with test compounds at several concentrations from 0.1 nM to 1,000 nM for 10 min at 37° C. Then, polyclonal goat antihuman IgE (0.1 μg/mL) or fMLP is added, and allowed to incubate for an additional 30 min Histamine released into the supernatant is measured using an automated fluorometric technique.

Row | Structure (SMILES) | inhibition at 10 µM [%]
6 | O=c1cc(N2CCOCC2)oc2c(-c3ccccc3)cccc12 [LY294002] | ~100
